# In ChEMBL document CHEMBL3797029, “Purinylpyridinylamino-based DFG-in/αC-helix-out B-Raf inhibitors: Applying mutant versus wild-type B-Raf selectivity indices for compound profiling” (Bioorg Med Chem, 2016):
# Experiments:
# [1] = target: Mitogen-activated protein kinase kinase kinase kinase 4 (Homo sapiens) (UniProt O95819); test: Inhibition of partial length wild type human MAP4K4 expressed in bacterial system assessed as enzyme activity at 1 uM relative to control; set-up: scale not given: the % may be the effect or the level left
# [2] = target: Myotonin-protein kinase (Homo sapiens) (UniProt Q09013); test: Inhibition of partial length wild type human DMPK expressed in bacterial system assessed as enzyme activity at 1 uM relative to control; set-up: scale not given: the % may be the effect or the level left
# [3] = target: Cyclin-dependent kinase 8 (Homo sapiens) (UniProt P49336); test: Inhibition of partial length wild type human CDK8 expressed in bacterial system assessed as enzyme activity at 1 uM relative to control; set-up: scale not given: the % may be the effect or the level left
# [4] = target: Fibroblast growth factor receptor 1 (Homo sapiens) (UniProt P11362); test: Inhibition of partial length wild type human FGFR1 expressed in bacterial system assessed as enzyme activity at 1 uM relative to control; set-up: scale not given: the % may be the effect or the level left
# [5] = target: Serine/threonine-protein kinase mTOR (Homo sapiens) (UniProt P42345); test: Inhibition of partial length wild type human MTOR expressed in mammalian system assessed as enzyme activity at 1 uM relative to control; set-up: scale not given: the % may be the effect or the level left
# [6] = target: RAC-alpha serine/threonine-protein kinase (Homo sapiens) (UniProt P31749); test: Inhibition of partial length wild type human AKT1 expressed in bacterial system assessed as enzyme activity at 1 uM relative to control; set-up: scale not given: the % may be the effect or the level left
# [7] = target: LIM domain kinase 1 (Homo sapiens) (UniProt P53667); test: Inhibition of full length wild type human LIMK1 expressed in bacterial system assessed as enzyme activity at 1 uM relative to control; set-up: scale not given: the % may be the effect or the level left
# [8] = target: Tyrosine-protein kinase Lyn (Homo sapiens) (UniProt P07948); test: Inhibition of partial length wild type human LYN expressed in bacterial system assessed as enzyme activity at 1 uM relative to control; set-up: scale not given: the % may be the effect or the level left
# [9] = target: Serine/threonine-protein kinase Chk1 (Homo sapiens) (UniProt O14757); test: Inhibition of partial length wild type human CHEK1 expressed in bacterial system assessed as enzyme activity at 1 uM relative to control; set-up: scale not given: the % may be the effect or the level left
# [10] = target: Protein kinase C epsilon type (Homo sapiens) (UniProt Q02156); test: Inhibition of partial length wild type human PRKCE expressed in mammalian system assessed as enzyme activity at 1 uM relative to control; set-up: scale not given: the % may be the effect or the level left
# [11] = target: Serine/threonine-protein kinase/endoribonuclease IRE1 (Homo sapiens) (UniProt O75460); test: Inhibition of partial length wild type human ERN1 expressed in mammalian system assessed as enzyme activity at 1 uM relative to control; set-up: scale not given: the % may be the effect or the level left
# [12] = target: Insulin receptor (Homo sapiens) (UniProt P06213); test: Inhibition of partial length wild type human INSR expressed in mammalian system assessed as enzyme activity at 1 uM relative to control; set-up: scale not given: the % may be the effect or the level left
# [13] = target: Epithelial discoidin domain-containing receptor 1 (Homo sapiens) (UniProt Q08345); test: Inhibition of partial length wild type human DDR1 expressed in bacterial system assessed as enzyme activity at 1 uM relative to control; set-up: scale not given: the % may be the effect or the level left
# [14] = tested on: MIA PaCa-2; test: Selectivity index, ratio of EC50 for wild type B-Raf in human MIAPaCa2 cells to IC50 for B-Raf V600E mutant in human A375 cells; type: cell-based
# [15] = target: TGF-beta receptor type-1 (Homo sapiens) (UniProt P36897); test: Inhibition of partial length wild type human TGFBR1 expressed in bacterial system assessed as enzyme activity at 1 uM relative to control; set-up: scale not given: the % may be the effect or the level left
# [16] = target: Serine/threonine-protein kinase 3 (Homo sapiens) (UniProt Q13188); test: Inhibition of partial length wild type human MST2 expressed in bacterial system assessed as enzyme activity at 1 uM relative to control; set-up: scale not given: the % may be the effect or the level left
# [17] = target: Ribosomal protein S6 kinase beta-1 (Homo sapiens) (UniProt P23443); test: Inhibition of partial length wild type human S6K1 expressed in mammalian system assessed as enzyme activity at 1 uM relative to control; set-up: scale not given: the % may be the effect or the level left
# [18] = target: Protein-tyrosine kinase 6 (Homo sapiens) (UniProt Q13882); test: Inhibition of partial length wild type human BRK expressed in bacterial system assessed as enzyme activity at 1 uM relative to control; set-up: scale not given: the % may be the effect or the level left
# [19] = target: Insulin-like growth factor 1 receptor (Homo sapiens) (UniProt P08069); test: Inhibition of partial length wild type human IGF1R expressed in bacterial system assessed as enzyme activity at 1 uM relative to control; set-up: scale not given: the % may be the effect or the level left
# [20] = target: Calcium/calmodulin-dependent protein kinase type IV (Homo sapiens) (UniProt Q16566); test: Inhibition of partial length wild type human CAMK4 expressed in bacterial system assessed as enzyme activity at 1 uM relative to control; set-up: scale not given: the % may be the effect or the level left
# [21] = target: Wee1-like protein kinase (Homo sapiens) (UniProt P30291); test: Inhibition of partial length wild type human WEE1 expressed in bacterial system assessed as enzyme activity at 1 uM relative to control; set-up: scale not given: the % may be the effect or the level left
# [22] = target: Non-receptor tyrosine-protein kinase TYK2 (Homo sapiens) (UniProt P29597); test: Inhibition of partial length wild type human TYK2 (catalytic JH1 domain) expressed in mammalian system assessed as enzyme activity at 1 uM relative to control; set-up: scale not given: the % may be the effect or the level left
# [23] = target: Epidermal growth factor receptor (Homo sapiens) (UniProt P00533); test: Inhibition of partial length wild type human EGFR expressed in bacterial system assessed as enzyme activity at 1 uM relative to control; set-up: scale not given: the % may be the effect or the level left
# [24] = target: Ephrin type-A receptor 2 (Homo sapiens) (UniProt P29317); test: Inhibition of partial length wild type human EPHA2 expressed in bacterial system assessed as enzyme activity at 1 uM relative to control; set-up: scale not given: the % may be the effect or the level left
# [25] = target: Mitogen-activated protein kinase kinase kinase kinase 1 (Homo sapiens) (UniProt Q92918); test: Inhibition of full length wild type human HPK1 expressed in bacterial system assessed as enzyme activity at 1 uM relative to control; set-up: scale not given: the % may be the effect or the level left
# [26] = target: Phosphatidylinositol 4,5-bisphosphate 3-kinase catalytic subunit alpha isoform (Homo sapiens) (UniProt P42336); test: Inhibition of partial length wild type human PIK3CA expressed in mammalian system assessed as enzyme activity at 1 uM relative to control; set-up: scale not given: the % may be the effect or the level left
# [27] = target: Cyclin-dependent kinase 2 (Homo sapiens) (UniProt P24941); test: Inhibition of full length wild type human CDK2 expressed in bacterial system assessed as enzyme activity at 1 uM relative to control; set-up: scale not given: the % may be the effect or the level left
# [28] = target: Glycogen synthase kinase-3 beta (Homo sapiens) (UniProt P49841); test: Inhibition of full length wild type human GSK3beta expressed in mammalian system assessed as enzyme activity at 1 uM relative to control; set-up: scale not given: the % may be the effect or the level left
# [29] = target: Tyrosine-protein kinase SYK (Homo sapiens) (UniProt P43405); test: Inhibition of partial length wild type human SYK expressed in bacterial system assessed as enzyme activity at 1 uM relative to control; set-up: scale not given: the % may be the effect or the level left
# [30] = target: Mitogen-activated protein kinase kinase kinase 7 (Homo sapiens) (UniProt O43318); test: Inhibition of partial length wild type human TAK1 expressed in mammalian system assessed as enzyme activity at 1 uM relative to control; set-up: scale not given: the % may be the effect or the level left
# [31] = target: Ephrin type-B receptor 3 (Homo sapiens) (UniProt P54753); test: Inhibition of partial length wild type human EPHB3 expressed in bacterial system assessed as enzyme activity at 1 uM relative to control; set-up: scale not given: the % may be the effect or the level left
# [32] = target: Tyrosine-protein kinase ABL1 (Homo sapiens) (UniProt P00519); test: Inhibition of partial length wild type nonphosphorylated human ABL1 expressed in mammalian system assessed as enzyme activity at 1 uM relative to control; set-up: scale not given: the % may be the effect or the level left
# [33] = target: Vascular endothelial growth factor receptor 2 (Homo sapiens) (UniProt P35968); test: Inhibition of partial length wild type human VEGFR2 expressed in mammalian system assessed as enzyme activity at 1 uM relative to control; set-up: scale not given: the % may be the effect or the level left
# Chain of Myotonin-protein kinase (Homo sapiens) (Q09013 whole entry): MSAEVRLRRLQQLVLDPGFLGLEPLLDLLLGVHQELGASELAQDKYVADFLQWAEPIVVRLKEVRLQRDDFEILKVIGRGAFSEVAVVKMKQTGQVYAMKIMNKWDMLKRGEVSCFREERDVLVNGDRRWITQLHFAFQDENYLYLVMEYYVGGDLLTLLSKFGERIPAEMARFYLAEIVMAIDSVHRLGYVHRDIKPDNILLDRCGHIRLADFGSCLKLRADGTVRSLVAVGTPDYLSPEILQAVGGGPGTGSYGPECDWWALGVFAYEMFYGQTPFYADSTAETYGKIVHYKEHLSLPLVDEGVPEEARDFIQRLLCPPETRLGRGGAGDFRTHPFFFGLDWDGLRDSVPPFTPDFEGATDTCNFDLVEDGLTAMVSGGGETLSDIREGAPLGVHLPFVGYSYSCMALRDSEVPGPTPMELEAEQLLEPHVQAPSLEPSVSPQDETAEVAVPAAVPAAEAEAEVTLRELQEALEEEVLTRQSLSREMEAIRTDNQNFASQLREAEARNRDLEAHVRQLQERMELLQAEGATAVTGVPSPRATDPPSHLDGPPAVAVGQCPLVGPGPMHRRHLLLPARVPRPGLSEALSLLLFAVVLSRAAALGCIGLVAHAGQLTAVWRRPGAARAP
# Chain of Phosphatidylinositol 4,5-bisphosphate 3-kinase catalytic subunit alpha isoform (Homo sapiens) (P42336 whole entry, canonical isoform): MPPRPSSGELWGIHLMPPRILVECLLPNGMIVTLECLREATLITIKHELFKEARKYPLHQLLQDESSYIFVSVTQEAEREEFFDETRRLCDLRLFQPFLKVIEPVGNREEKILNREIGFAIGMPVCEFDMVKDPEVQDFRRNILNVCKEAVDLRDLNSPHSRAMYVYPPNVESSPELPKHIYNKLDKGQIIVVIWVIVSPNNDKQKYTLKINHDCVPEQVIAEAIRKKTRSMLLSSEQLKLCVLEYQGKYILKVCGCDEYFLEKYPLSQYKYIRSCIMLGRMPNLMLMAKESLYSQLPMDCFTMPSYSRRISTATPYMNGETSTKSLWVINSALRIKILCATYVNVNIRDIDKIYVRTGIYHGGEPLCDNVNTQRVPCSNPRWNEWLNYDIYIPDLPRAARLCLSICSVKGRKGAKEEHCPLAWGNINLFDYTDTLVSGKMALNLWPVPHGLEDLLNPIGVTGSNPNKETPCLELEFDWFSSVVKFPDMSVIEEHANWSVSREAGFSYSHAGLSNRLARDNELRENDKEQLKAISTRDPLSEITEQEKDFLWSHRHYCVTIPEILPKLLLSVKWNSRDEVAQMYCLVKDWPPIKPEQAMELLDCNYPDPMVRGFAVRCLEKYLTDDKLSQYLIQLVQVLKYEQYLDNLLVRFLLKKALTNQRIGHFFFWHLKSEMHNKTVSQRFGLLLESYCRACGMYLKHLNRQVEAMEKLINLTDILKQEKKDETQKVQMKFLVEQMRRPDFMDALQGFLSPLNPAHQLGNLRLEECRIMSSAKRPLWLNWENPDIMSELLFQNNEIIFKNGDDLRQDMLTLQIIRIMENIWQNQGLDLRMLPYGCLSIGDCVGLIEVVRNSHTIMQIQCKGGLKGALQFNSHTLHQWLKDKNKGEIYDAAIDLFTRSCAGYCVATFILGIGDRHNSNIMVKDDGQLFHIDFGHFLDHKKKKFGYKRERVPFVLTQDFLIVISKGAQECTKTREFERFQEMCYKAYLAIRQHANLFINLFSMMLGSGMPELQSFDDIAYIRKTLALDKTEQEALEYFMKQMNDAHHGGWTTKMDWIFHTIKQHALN
# Chain of Ribosomal protein S6 kinase beta-1 (Homo sapiens) (P23443 whole entry, looked up): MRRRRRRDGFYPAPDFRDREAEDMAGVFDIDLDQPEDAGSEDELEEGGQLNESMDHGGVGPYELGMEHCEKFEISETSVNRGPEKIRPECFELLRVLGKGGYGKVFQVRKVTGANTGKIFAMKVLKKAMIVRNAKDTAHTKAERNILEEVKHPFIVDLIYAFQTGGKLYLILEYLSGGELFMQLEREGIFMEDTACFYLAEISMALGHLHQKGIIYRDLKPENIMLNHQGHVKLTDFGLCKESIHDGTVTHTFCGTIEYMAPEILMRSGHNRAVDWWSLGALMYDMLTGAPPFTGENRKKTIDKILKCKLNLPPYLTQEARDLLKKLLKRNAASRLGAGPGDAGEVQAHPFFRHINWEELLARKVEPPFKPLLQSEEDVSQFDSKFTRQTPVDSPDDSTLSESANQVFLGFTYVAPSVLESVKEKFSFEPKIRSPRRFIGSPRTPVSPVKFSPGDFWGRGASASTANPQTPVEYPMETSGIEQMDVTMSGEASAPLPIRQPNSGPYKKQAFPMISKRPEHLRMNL
# Chain of Non-receptor tyrosine-protein kinase TYK2 (Homo sapiens) (P29597 whole entry, the tested form may be a part): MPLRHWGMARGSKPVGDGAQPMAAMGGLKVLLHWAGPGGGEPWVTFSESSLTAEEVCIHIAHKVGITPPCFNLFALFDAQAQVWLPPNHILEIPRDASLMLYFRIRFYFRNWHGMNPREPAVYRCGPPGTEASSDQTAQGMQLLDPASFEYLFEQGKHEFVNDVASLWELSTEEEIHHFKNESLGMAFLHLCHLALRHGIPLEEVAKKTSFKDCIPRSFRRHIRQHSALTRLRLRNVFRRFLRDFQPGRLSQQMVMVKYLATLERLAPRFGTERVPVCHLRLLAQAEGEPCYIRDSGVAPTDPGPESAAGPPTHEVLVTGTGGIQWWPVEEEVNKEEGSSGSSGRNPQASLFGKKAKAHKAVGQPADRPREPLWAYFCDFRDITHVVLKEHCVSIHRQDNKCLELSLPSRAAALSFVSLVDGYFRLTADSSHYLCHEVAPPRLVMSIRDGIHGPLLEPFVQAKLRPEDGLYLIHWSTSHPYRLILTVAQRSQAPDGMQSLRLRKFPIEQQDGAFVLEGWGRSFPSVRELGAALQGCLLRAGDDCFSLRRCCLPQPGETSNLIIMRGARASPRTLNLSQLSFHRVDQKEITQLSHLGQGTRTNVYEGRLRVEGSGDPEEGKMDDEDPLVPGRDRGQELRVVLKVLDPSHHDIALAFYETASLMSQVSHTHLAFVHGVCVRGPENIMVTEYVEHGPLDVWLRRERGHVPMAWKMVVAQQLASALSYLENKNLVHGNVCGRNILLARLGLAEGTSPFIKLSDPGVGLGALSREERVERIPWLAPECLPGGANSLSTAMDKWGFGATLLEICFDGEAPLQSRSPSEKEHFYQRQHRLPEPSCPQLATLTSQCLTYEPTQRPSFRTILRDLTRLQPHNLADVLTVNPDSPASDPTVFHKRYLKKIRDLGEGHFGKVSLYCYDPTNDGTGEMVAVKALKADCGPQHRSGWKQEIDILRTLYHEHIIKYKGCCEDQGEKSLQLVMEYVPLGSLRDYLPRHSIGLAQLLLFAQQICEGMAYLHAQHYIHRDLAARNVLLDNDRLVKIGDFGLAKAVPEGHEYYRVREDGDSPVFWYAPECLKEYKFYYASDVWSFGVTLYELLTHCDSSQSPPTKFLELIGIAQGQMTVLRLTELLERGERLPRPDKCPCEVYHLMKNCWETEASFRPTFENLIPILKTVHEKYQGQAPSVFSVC
# Chain of Serine/threonine-protein kinase Chk1 (Homo sapiens) (O14757 whole entry): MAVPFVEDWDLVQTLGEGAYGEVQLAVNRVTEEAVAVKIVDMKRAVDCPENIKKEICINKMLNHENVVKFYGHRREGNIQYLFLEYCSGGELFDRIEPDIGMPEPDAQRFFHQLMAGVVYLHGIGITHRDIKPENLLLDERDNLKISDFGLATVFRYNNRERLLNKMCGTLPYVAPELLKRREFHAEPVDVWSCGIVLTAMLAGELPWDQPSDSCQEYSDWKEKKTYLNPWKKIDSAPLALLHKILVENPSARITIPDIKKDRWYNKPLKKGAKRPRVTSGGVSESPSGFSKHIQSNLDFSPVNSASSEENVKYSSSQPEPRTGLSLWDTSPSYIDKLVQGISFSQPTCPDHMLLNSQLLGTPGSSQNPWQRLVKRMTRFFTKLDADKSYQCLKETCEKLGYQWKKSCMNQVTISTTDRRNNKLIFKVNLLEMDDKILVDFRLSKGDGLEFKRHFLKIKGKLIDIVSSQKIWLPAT
# Chain of Wee1-like protein kinase (Homo sapiens) (P30291 whole entry, looked up, the tested form may be a part): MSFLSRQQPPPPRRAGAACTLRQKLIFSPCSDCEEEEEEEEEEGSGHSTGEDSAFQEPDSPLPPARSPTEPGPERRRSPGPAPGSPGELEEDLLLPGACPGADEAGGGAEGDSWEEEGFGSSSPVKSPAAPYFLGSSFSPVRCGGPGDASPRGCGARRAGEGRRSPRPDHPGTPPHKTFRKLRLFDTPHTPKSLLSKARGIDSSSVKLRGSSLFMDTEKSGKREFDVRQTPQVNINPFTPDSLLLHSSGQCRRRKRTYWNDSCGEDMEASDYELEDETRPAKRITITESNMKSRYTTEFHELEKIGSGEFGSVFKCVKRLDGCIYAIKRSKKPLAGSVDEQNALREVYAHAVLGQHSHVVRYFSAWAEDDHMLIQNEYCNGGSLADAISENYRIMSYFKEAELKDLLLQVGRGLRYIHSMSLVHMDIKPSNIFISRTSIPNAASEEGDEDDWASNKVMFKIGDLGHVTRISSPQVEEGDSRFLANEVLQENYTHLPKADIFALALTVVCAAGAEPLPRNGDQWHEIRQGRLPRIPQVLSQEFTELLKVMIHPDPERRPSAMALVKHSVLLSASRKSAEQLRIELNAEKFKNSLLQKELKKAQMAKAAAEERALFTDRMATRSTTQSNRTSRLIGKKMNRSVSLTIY
# Chain of Protein-tyrosine kinase 6 (Homo sapiens) (Q13882 whole entry, looked up): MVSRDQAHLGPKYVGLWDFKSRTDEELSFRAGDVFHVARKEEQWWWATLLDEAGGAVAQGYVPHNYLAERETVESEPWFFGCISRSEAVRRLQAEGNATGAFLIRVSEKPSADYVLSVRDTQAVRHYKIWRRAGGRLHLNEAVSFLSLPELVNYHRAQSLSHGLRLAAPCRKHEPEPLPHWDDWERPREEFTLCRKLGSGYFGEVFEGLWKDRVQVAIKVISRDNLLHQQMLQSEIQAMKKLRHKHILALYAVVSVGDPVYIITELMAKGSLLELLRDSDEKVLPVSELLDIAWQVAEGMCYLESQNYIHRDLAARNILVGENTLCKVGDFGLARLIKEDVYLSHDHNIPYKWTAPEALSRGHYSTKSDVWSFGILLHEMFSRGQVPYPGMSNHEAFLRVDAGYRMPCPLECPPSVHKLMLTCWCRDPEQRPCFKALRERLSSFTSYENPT
smiles,measurement,setting,value
CN(C)S(=O)(=O)Nc1ccc(F)c(Nc2ncccc2-c2ncnc3[nH]cnc23)c1F,Activity,[1],98%
same,Activity,[2],100%
same,Activity,[3],85%
same,Activity,[4],83%
same,Activity,[5],100%
same,Activity,[6],87%
same,Activity,[7],57%
same,Activity,[8],93%
same,Activity,[9],86%
same,Activity,[10],87%
same,Activity,[11],100%
same,Activity,[12],100%
same,Activity,[13],88%
same,Ratio,[14],33
same,Activity,[15],65%
same,Activity,[16],91%
same,Activity,[17],100%
same,Activity,[18],14%
same,Activity,[19],98%
same,Activity,[20],83%
same,Activity,[21],90%
same,Activity,[22],100%
same,Activity,[23],66%
same,Activity,[24],74%
same,Activity,[25],87%
same,Activity,[26],100%
same,Activity,[27],99%
same,Activity,[28],100%
same,Activity,[29],76%
same,Activity,[30],70%
same,Activity,[31],94%
same,Activity,[32],96%
same,Activity,[33],84%
